Values joined by “and” are separate entries in the source; they are usually repeats but may differ in a detail not shown here. Identical values can stand only once.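 Results reflect a 48-hour exposure of cells in 96-well plates to compound at five concentrations. GI50: concentration for 50% inhibition of growth. The concentration for full growth arrest is given as TGI.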
How the values were obtained:
Assay in all cases: NCI-60 cell line screen, 48 h
RPMI-8226 leukemia = test system: RPMI-8226 leukemia
DLD-1 colon = test system: DLD-1 colon
DMS 273 small cell lung = test system: DMS 273 small cell lung
OVCAR-5 ovarian = test system: OVCAR-5 ovarian
SF-268 CNS = test system: SF-268 CNS
HOP-62 NSCLC = test system: HOP-62 NSCLC
KM12 colon = test system: KM12 colon
M19-MEL melanoma = test system: M19-MEL melanoma
CAKI-1 renal = test system: CAKI-1 renal
KM20L2 colon = test system: KM20L2 colon
OVCAR-3 ovarian = test system: OVCAR-3 ovarian
MDA-MB-435 = test system: MDA-MB-435

Row | Compound | TGI (RPMI-8226 leukemia) | TGI (DLD-1 colon) | TGI (DMS 273 small cell lung) | TGI (OVCAR-5 ovarian) | TGI (SF-268 CNS) | TGI (HOP-62 NSCLC) | TGI (KM12 colon) | TGI (M19-MEL melanoma) | TGI (CAKI-1 renal) | TGI (KM20L2 colon) | TGI (OVCAR-3 ovarian) | GI50 (RPMI-8226 leukemia) | GI50 (OVCAR-5 ovarian) | GI50 (SF-268 CNS) | GI50 (HOP-62 NSCLC) | GI50 (KM12 colon) | GI50 (CAKI-1 renal) | GI50 (MDA-MB-435) | TGI (MDA-MB-435) | GI50 (OVCAR-3 ovarian)
1 | Cc1ccc(SCC(O)=C2C(=O)CCCC2=O)cc1 | > 100 µM | > 100 µM | > 100 µM | > 100 µM | > 100 µM | > 100 µM | > 100 µM | > 100 µM | > 100 µM | > 100 µM | > 100 µM |  |  |  |  |  |  |  |  | 
2 | O=C(O)Cc1cc(=O)[nH]c2c1C(=O)CCC2 | > 100 µM | > 100 µM | > 100 µM | > 100 µM | > 100 µM |  | > 100 µM | > 100 µM |  | > 100 µM | > 100 µM |  |  |  |  |  |  |  |  | 
3 | CC(=O)OCC(OC(C)=O)C(OC(C)=O)C(OC(C)=O)C(=O)CNn1c(-c2ccccc2Cl)nc2ccc(Br)cc2c1=O (configuration not stated) | > 100 µM |  | > 100 µM | > 100 µM | > 100 µM | > 100 µM | > 100 µM | > 100 µM | > 100 µM | > 100 µM | > 100 µM |  |  |  |  |  |  |  |  | 
4 | CCCCCCCCCCCCCCC(O)C1CCC(C(O)CCC(O)CCCCCC(O)CC2=CC(C)OC2=O)O1 (configuration not stated) | 2.75 µM | 11.9 µM | 4.75 µM | 20.3 µM | 12.2 µM | 7.77 µM |  | 11.2 µM | 20.8 µM | 18.3 µM | 4.76 µM |  |  |  |  |  |  |  |  | 
5 | C[C@@H](c1ccccc1)N(CC#N)C1CCC[C@H]1O (some centres not stated) | > 100 µM |  | > 100 µM |  | > 100 µM | > 100 µM | > 100 µM | > 100 µM |  | > 100 µM | > 100 µM |  |  |  |  |  |  |  |  | 
6 | O=C(O)c1oc2cccc3c2c1CCC3 | > 100 µM | > 100 µM | > 100 µM | > 100 µM | > 100 µM | > 100 µM | > 100 µM | > 100 µM |  |  | > 100 µM |  |  |  |  |  |  |  |  | 
7 | Cc1ccc(S(=O)(=O)c2ccsc2N)cc1 | > 100 µM |  |  | > 100 µM | > 100 µM | > 100 µM | > 100 µM |  | > 100 µM |  | > 100 µM | 95.4 µM | > 100 µM | 97.7 µM | > 100 µM | > 100 µM | > 100 µM | > 100 µM | > 100 µM | 56.1 µM
8 | O=C1NC(O)CCN1C1CC(O)C(CO)O1 (configuration not stated) | > 100 µM |  |  | > 100 µM | > 100 µM | > 100 µM | > 100 µM |  | > 100 µM |  | > 100 µM |  |  |  |  |  |  |  | > 100 µM | 
9 | N#Cc1c(NCc2ccccc2)nc(NCc2ccccc2)c(C#N)c1-c1cccc(O)c1 | 22.6 µM |  |  | 48 µM | 46.5 µM | 23.1 µM | > 100 µM |  | 19.4 µM |  | 19.4 µM | 3.11 µM | 21.3 µM | 19.5 µM | 10.5 µM | 4.03 µM | 2.77 µM | 2.91 µM | 9.97 µM | 3.31 µM
10 | c1ccc(-c2cnc3nc4ccccc4nc3n2)cc1 | 23.9 µM |  |  | 83.1 µM | 17.8 µM | 65.3 µM | 21.8 µM |  | 3.53 µM |  | 5.63 µM |  |  |  |  |  |  |  | 3.22 µM | 
11 | c1ccc(COc2cccc3cccnc23)cc1 | > 100 µM | > 100 µM |  | > 100 µM | 88.4 µM | > 100 µM | > 100 µM | > 100 µM |  | > 100 µM | > 100 µM |  |  |  |  |  |  |  |  | 
12 | Cc1nc2sc(C(=O)Nc3cccc(Cl)c3C)c(N)c2cc1C(C)O (configuration not stated) | > 94 µM |  |  | > 74.8 µM | > 82.2 µM | > 100 µM | > 41.1 µM |  | > 100 µM |  | > 33.4 µM | 0.347 µM | 0.7 µM | 5.75 µM | 0.53 µM | 0.175 µM | 0.334 µM | 0.0288 µM | 0.101 µM | 0.114 µM
13 | O=[N+]([O-])c1ccc(NC(=S)N/N=C(\c2ccccc2)c2ccccn2)cc1 | 5.6 µM and > 27 µM |  |  | 2.58 µM and 4.58 µM | 1.9 µM and 1.84 µM | 2.98 µM and 1.62 µM | 3.35 µM and 4.12 µM |  | 3.02 µM and 2.97 µM |  | 1.36 µM and 2.76 µM | 1.2 µM | 0.0772 µM |  | 1.3 µM |  | 1.36 µM |  | 3.15 µM and 3.17 µM | 
14 | COc1cc(N=Nc2cccc(S(N)(=O)=O)c2)c2ccccc2c1N | 57.3 µM |  |  | 33.3 µM | 31.9 µM | 21.8 µM | 26.4 µM |  | 20.8 µM |  | 27.5 µM |  |  |  |  |  |  |  | 3.71 µM | 
15 | Cn1c(O)c(N=NC(N)=S)c2ccccc21 | > 100 µM |  |  | > 100 µM | > 100 µM | > 100 µM | > 100 µM |  | 91.7 µM |  | > 100 µM | > 100 µM | > 100 µM | 62.8 µM | 33.5 µM | 88.3 µM | 23.6 µM | > 100 µM | > 100 µM | 33.4 µM
16 | O=C(Nc1cccc([N+](=O)[O-])c1)c1cc2ccccc2cc1O | 1.06 µM |  |  | 10.3 µM | > 100 µM | 3.72 µM | 6.44 µM |  | 4.88 µM |  | 7.33 µM | 0.146 µM | 2.55 µM | 2.98 µM | 1.19 µM | 2.41 µM | 1.16 µM | 1.5 µM | 5.41 µM | 0.783 µM
17 | C[C@]12CC[C@H]3[C@@H](CCC4=C[C@@H](OC5OCC(OC6OC(CO)C(O)C(O)C6O)C(O)C5O)CC[C@@]43C=O)[C@@]1(O)CCC2C1=CC(=O)OC1 (some centres not stated) | 2.75 µM |  |  | 3.78 µM | 1.64 µM | 1.84 µM | 13.9 µM |  | 1.62 µM |  | 1.43 µM |  |  |  |  |  |  |  | 3.71 µM | 
18 | CN1N=Nc2c(C(F)(F)F)nn(-c3ccccc3)c2N(C)C1=O | > 100 µM |  |  | > 100 µM | > 100 µM | > 100 µM | > 100 µM |  | > 100 µM |  | > 100 µM | > 56 µM | > 100 µM | > 100 µM | > 100 µM | > 100 µM | > 100 µM | > 100 µM | > 100 µM | > 100 µM
19 | Cc1cc(Cl)ccc1NC(=O)NC(C)(C)COC(=O)Nc1cccc(Cl)c1 | 15.3 µM |  |  | > 100 µM | 78 µM | 50.5 µM | 17.6 µM |  | 75.3 µM |  | 12.7 µM | 3.26 µM | 8.1 µM | 13.5 µM | 14.1 µM | 3.78 µM | 4.38 µM | 10.9 µM | 49.4 µM | 3.78 µM
